Two molecules from patent publication US8569011B2, “Fluorescent derivatives of polyamines, method for preparing same and applications thereof as diagnosis tools in the treatment of cancerous tumors” (Pierre Fabre Medicament, priority 2007, dated 2013) can be followed below.

The subject of test [1] is BLUE-1. In words: Cytotoxicity, residual ATP (ATPlite kit), 72 hours, BLUE-1. The format is cell-based. As to conditions: BLUE-1 leukemic line, 72 hours incubation. The procedure:
(§1) An anticancer compound is used, a derivative of epipodophyllotoxin, whose intracellular penetration is dependent on the polyamine transporter, such as the compound described in example 27 of patent application WO 2005/100363 and, as reference compound, etoposide which is a non-vectored epipodophyllotoxin. These two compounds have the same mechanism of action on cancer cells: they are both inhibitors of topoisomerase 2.
(§2) A panel of leukemic lines was assayed to ascertain probe incorporation, here the one described in example 1, regarding the sensitivity to a vectored agent such as the compound in example 27 of patent application WO 2005/100363 and by comparison with non-vectored etoposide. After an incubation time of 72 hours with the compound of example 27 in patent application WO 2005/100363 or with etoposide, cytotoxicity was evaluated using the ATPlite kit. Cells from the same line were also incubated in the presence of the probe described in example 1, and were analyzed by flow cytometry. Fluorescence intensity measured at 525 nm was followed from 0 to 1 hour 30 minutes and the slope of intensity variation was calculated.

Test [2] has as its system CEM. Kind of test: Cytotoxicity, residual ATP (ATPlite kit), 72 hours, CEM. In kind it is cell-based. As to conditions: Homo sapiens, CCRF-CEM, CEM leukemic line, 72 hours incubation. The procedure: as §1, §2
On the technique in general: ATP-based viability assays read luminescence as a measure of living cells.

Test [3] has as its system U-937. Kind of test: Cytotoxicity, residual ATP (ATPlite kit), 72 hours, U-937. The format is cell-based. The note with it: Homo sapiens, U-937 leukemic line, 72 hours incubation. The procedure:
as §1, §2

The test system of test [4] is BL-41. Kind of test: Cytotoxicity, residual ATP (ATPlite kit), 72 hours, BL-41. The format is cell-based. The note with it: Homo sapiens, BL-41 leukemic line, 72 hours incubation. The procedure:
as §1, §2

Test [5] deals with KG-1. Kind of test: Cytotoxicity, residual ATP (ATPlite kit), 72 hours, KG-1. In kind it is cell-based. The note with it: Homo sapiens, KG-1 leukemic line, 72 hours incubation. The procedure:
as §1, §2

The test system of test [6] is BLUE-1. In words: Fluorescent probe incorporation (polyamine transport activity) by flow cytometry, BLUE-1. In kind it is cell-based. The note with it: (cell intensity with probe presence) - (cell intensity without probe presence), emission 525 nm. The procedure: (§3) Cells taken from biopsies are mechanically separated with or without the presence of trypsin depending on the constitution of the tissue under consideration. The haematopoietic cells are separated and isolated following conventional preparation methods for blood cells. Once isolated after a fairly short time to ensure the viability of the cells being examined, the cells are placed in the presence of the probe such as synthesized in examples 1 to 3 for example, and left to incubate in the recommended culture medium for the tissue under consideration in the presence of aminoguanidine. Aminoguanidine is used to prevent in vitro denaturating of the polyamines. […] An incubation time of one to four hours is sufficient and allows detection of fluorescence by immunochemistry or flow cytometry, by choosing excitation and emission wavelengths compatible with the substituent of the fluorescent probe. This analysis is conducted by flow cytometry or histochemistry following standard methodology in the study described below, by exciting the probe obtained in example 1, N-(3-aminopropyl)-N′-{3-[methyl-(7-nitrobenzo[1,2,5]oxadiazol-4-yl)-amino]-propyl}-butane-1,4-diamine with a 488 nm source and measuring fluorescence emission at 525 nm. […]
(§4) For all the assayed lines, the capacity to incorporate the fluorescent probe, characterized by the fluorescence measured by flow cytometry, was also measured.

The test system of test [7] is CEM. In words: Fluorescent probe incorporation (polyamine transport activity) by flow cytometry, CEM. The format is cell-based. As to conditions: (cell intensity with probe presence) - (cell intensity without probe presence), emission 525 nm. Here is the method:
as §3, §4

Test [8] has as its system BL-41. Kind of test: Fluorescent probe incorporation (polyamine transport activity) by flow cytometry, BL-41. As to conditions: (cell intensity with probe presence) - (cell intensity without probe presence), emission 525 nm. In kind it is cell-based. Here is the method: as §3, §4
In general terms: In flow cytometry, cells or beads pass a laser one at a time.

The subject of test [9] is U-937. Kind of test: Fluorescent probe incorporation (polyamine transport activity) by flow cytometry, U-937. As to conditions: (cell intensity with probe presence) - (cell intensity without probe presence), emission 525 nm. In kind it is cell-based. The procedure:
as §3, §4

Test [10] has as its system KG-1. Kind of test: Fluorescent probe incorporation (polyamine transport activity) by flow cytometry, KG-1. In kind it is cell-based. As to conditions: (cell intensity with probe presence) - (cell intensity without probe presence), emission 525 nm. The procedure:
as §3, §4

Another test has as its system A549 cells. In words: Selectivity of the probes vis-a-vis tumor cells: probe incorporation in A549 cells compared with MRC-5 cells. The format is cell-based, human. The procedure: as §3

For the molecule `COc1cc([C@@H]2c3cc4c(cc3[C@@H](O[C@@H]3O[C@@H]5CO[C@@H](C)O[C@H]5[C@H](O)[C@H]3O)[C@H]3COC(=O)[C@H]23)OCO4)cc(OC)c1O` [Etoposide, etoposide], the IC50 in the test with BLUE-1 [1] is 1000 nM; in the test on CEM [2], 60 nM; in the test with U-937 [3], 400 nM; with BL-41 [4], 400 nM; in the test on KG-1 [5], 5 µM.

For the molecule `CN(CCCNCCCCNCCCN)c1ccc([N+](=O)[O-])c2nonc12` [Example 1, N-(3-aminopropyl)-N′-{3-(methyl-(7-nitrobenzo[1,2,5]oxadiazol-4-yl)-amino)-propyl}-butane-1,4-diamine], the Polyamine transport activity is listed as 58 Arbitrary Unit of fluorescence in the test with BLUE-1 [6]; 421 Arbitrary Unit of fluorescence in the test on CEM [7]; 164 Arbitrary Unit of fluorescence with BL-41 [8]; 33 Arbitrary Unit of fluorescence in the test on U-937 [9]; 17 Arbitrary Unit of fluorescence in the test on KG-1 [10]. Further, the “Incorporation differential tumoral cells versus healthy cells” value in the test with A549 cells (flow cytometry, A549 vs MRC-5) is “confirmed by flow cytometry”. The “Incorporation of the probe in tumoral cells versus cells from healthy tissue” value in the test with A549 cells (fluorescence microscope, slide cultured cells, A549 (FIG. 1A) vs MRC-5 healthy lung (FIG. 1B), excitation 488 nm, emission 525 nm) is “much greater incorporation”.

What is called IC50 is the concentration that gives 50% inhibition. Low values mean greater potency, high ones weaker potency.
